This is an account of results in DBAASP.

Some test systems named below: Lactococcus garvieae; Vibrio harveyi; Vibrio parahaemolyticus; Vibrio alginolyticus; Streptococcus iniae; Staphylococcus aureus.
Experiment in all cases: ≥ marks a high value that may be exact or a test limit, other limits are often not marked, values filed in µg/mL are converted to µM
For assay [1], the system named is Staphylococcus xylosus BCRC 12930.
In assay [2] the test system is Staphylococcus aureus BCRC 10780.
Assay [3] has as its system Vibrio parahaemolyticus BCRC 10806.
In assay [4] the test system is Staphylococcus aureus BCRC 10781.
Assay [5] has as its system Vibrio alginolyticus BCRC 12829.
The subject of assay [6] is Klebsiella oxytoca BCRC 13985.
Assay [7] has as its system Streptococcus equinus BCRC 14729.
Assay [8] concerns Vibrio anguillarum serotype O1.
Assay [9] concerns Listeria monocytogenes BCRC 14845.
Assay [10] relates to Pseudomonas aeruginosa BCRC 10944.
Assay [11] deals with Enterobacter cloacae BCRC 10401.
Assay [12] relates to Yersinia enterocolitica BCRC 13999.
Assay [13] concerns Escherichia coli BCRC 10675.
In assay [14] the test system is Klebsiella aerogenes BCRC 10370.
Assay [15] concerns Streptococcus gordonii Challis DL1.
Assay [16] relates to Streptococcus mitis ATCC 903.
Assay [17] relates to Pseudomonas aeruginosa PAK.
The test system of assay [18] is Streptococcus sanguinis NY101.
For assay [19], the system named is Streptococcus mutans UA159.
The subject of assay [20] is Micrococcus luteus ATCC 4698.
For assay [21], the system named is Staphylococcus epidermidis ATCC 12228.
The test system of assay [22] is Escherichia coli DH5alpha.
Assay [23] deals with Staphylococcus aureus ATCC 6538.

≈ marks a conversion by molar mass, not a printed value.

As for `CC[C@H](C)[C@H](NC(=O)[C@H](Cc1ccc(O)cc1)NC(=O)[C@H](CC(N)=O)NC(=O)[C@H](Cc1ccccc1)NC(=O)[C@@H](NC(=O)[C@H](CCCCN)NC(=O)[C@H](CCCCN)NC(=O)[C@@H](NC(=O)[C@H](CC(C)C)NC(=O)[C@H](CC(N)=O)NC(=O)[C@H](C)NC(=O)[C@H](Cc1ccccc1)NC(=O)[C@H](CCCCN)NC(=O)[C@H](CCCCN)NC(=O)[C@H](C)NC(=O)[C@H](C)NC(=O)[C@H](CC(N)=O)NC(=O)[C@H](C)NC(=O)CN)[C@@H](C)CC)[C@@H](C)CC)C(=O)N[C@@H](Cc1c[nH]c2ccccc12)C(=O)O` [GANAAKKFANLIKKIFNYIW], the MIC (as a rule, the smallest concentration in the dilution series that meets the test's criterion for growth inhibition) is 6.92 µM (≈ 16 µg/mL) in assay [1]; 3.46 µM (≈ 8 µg/mL) in assay [2]; no less than 55.4 µM against Lactococcus garvieae; 3.46 µM (≈ 8 µg/mL) with Vibrio harveyi; 6.92 µM (≈ 16 µg/mL) in the assay on Vibrio parahaemolyticus; 13.8 µM (≈ 32 µg/mL) in assay [3]. Besides, the MIC in assay [4] was 6.92 µM (≈ 16 µg/mL); in assay [5] it was 13.8 µM (≈ 32 µg/mL); in [6], 13.8 µM (≈ 32 µg/mL); in [7] it was no less than 55.4 µM; in [8], 6.92 µM (≈ 16 µg/mL); in [9], 13.8 µM (≈ 32 µg/mL). Moreover, the MIC against Vibrio alginolyticus is 6.92 µM (≈ 16 µg/mL); against Streptococcus iniae it was no less than 55.4 µM; in assay [10] it was 13.8 µM (≈ 32 µg/mL); in [11] it was 6.92 µM (≈ 16 µg/mL); in assay [12] it was no less than 55.4 µM; in [13], 6.92 µM (≈ 16 µg/mL). The compound further came in with an MIC in assay [14] of 6.92 µM (≈ 16 µg/mL).
In the case of `CC[C@H](C)[C@H](NC(=O)[C@H](Cc1ccccc1)NC(=O)[C@H](Cc1cnc[nH]1)NC(=O)[C@H](CCCCN)NC(=O)[C@@H](NC(=O)[C@@H](N)Cc1ccccc1)[C@@H](C)CC)C(=O)N[C@@H](Cc1cnc[nH]1)C(=O)N[C@@H](CCCN=C(N)N)C(=O)N[C@@H](Cc1ccccc1)C(=O)N[C@@H](CO)C(=O)N[C@@H](C)C(=O)N[C@H](C(=O)N[C@@H](CC(C)C)C(=O)N[C@@H](CCC(N)=O)C(=O)N[C@@H](CC(C)C)C(=O)N[C@@H](CC(C)C)C(=O)N[C@@H](CCCCN)C(=O)N[C@@H](CCC(N)=O)C(=O)N[C@@H](CC(C)C)C(=O)N[C@@H](CC(C)C)C(=O)N[C@@H](CCCCN)C(=O)N[C@@H](CC(C)C)C(=O)N[C@@H](CC(C)C)C(=O)N[C@@H](CCCCN)C(=O)N[C@@H](CCC(N)=O)C(=O)N[C@@H](Cc1ccccc1)C(N)=O)[C@@H](C)O` [FIKHFIHRFSATLQLLKQLLKLLKQF], the MIC in [15] was determined as 2.49 µM (≈ 8 µg/mL); in assay [16], 9.96 µM (≈ 32 µg/mL); in [17], 9.96 µM (≈ 32 µg/mL); in the assay on Staphylococcus aureus, 19.5 µM (≈ 62.5 µg/mL); in assay [18] it was 4.98 µM (≈ 16 µg/mL); in [19] it was 4.98 µM (≈ 16 µg/mL).
Turning to `CC[C@H](C)[C@H](NC(=O)CN)C(=O)N[C@@H](CCCCN)C(=O)N[C@H](C(=O)N[C@@H](C)C(=O)N[C@@H](CCCCN)C(=O)N[C@@H](CCCCN)C(=O)N[C@@H](C)C(=O)N[C@H](C(=O)N[C@H](C(=O)N[C@H](C(=O)N[C@@H](C)C(=O)N[C@@H](CCCCN)C(=O)N[C@@H](CCCCN)C(=O)N[C@H](C(=O)N[C@@H](C)C(=O)N[C@@H](CCCCN)C(=O)N[C@H](C(=O)N[C@@H](Cc1ccc(O)cc1)C(=O)N[C@@H](Cc1c[nH]c2ccccc12)C(=O)O)[C@@H](C)CC)[C@@H](C)CC)[C@@H](C)CC)[C@@H](C)O)[C@@H](C)CC)[C@@H](C)CC` [GIKIAKKAITIAKKIAKIYW], the MIC is 1.77 µM (≈ 4 µg/mL) in [1]; 14.2 µM (≈ 32 µg/mL) in assay [2]; no less than 56.7 µM in the assay on Lactococcus garvieae; 14.2 µM (≈ 32 µg/mL) against Vibrio harveyi; 7.09 µM (≈ 16 µg/mL) in the assay with Vibrio parahaemolyticus; no less than 56.7 µM in assay [3]. Moreover, the MIC in assay [4] was 14.2 µM (≈ 32 µg/mL); in assay [5], no less than 56.7 µM; in assay [6], 14.2 µM (≈ 32 µg/mL); in assay [7], no less than 56.7 µM; in assay [8] it was 14.2 µM (≈ 32 µg/mL); in assay [9] it was 14.2 µM (≈ 32 µg/mL). For the same compound, the minimal inhibitory concentration (MIC) with Vibrio alginolyticus is 1.77 µM (≈ 4 µg/mL); against Streptococcus iniae, no less than 56.7 µM; in assay [10] it was 7.09 µM (≈ 16 µg/mL); in [11] it was 3.54 µM (≈ 8 µg/mL); in [12] it was 14.2 µM (≈ 32 µg/mL); in assay [13], 7.09 µM (≈ 16 µg/mL). In assay [14], this compound came in with an MIC of 7.09 µM (≈ 16 µg/mL).
Compound `CC[C@H](C)[C@@H]1NC(=O)[C@H](CO)NC(=O)[C@H](CCCCN)NC(=O)[C@@H](N)CSSC[C@@H](C(=O)NCC(=O)O)NC(=O)[C@H](CCCN=C(N)N)NC(=O)CNC(=O)[C@@H]2CCCN2C1=O` [CKSIPGRCG] returned an MIC in [20] of no less than 75 µM.
Turning to `CC[C@H](C)[C@H](NC(=O)[C@H](Cc1ccccc1)NC(=O)[C@H](Cc1cnc[nH]1)NC(=O)[C@H](CCCCN)NC(=O)[C@@H](NC(=O)[C@H](Cc1ccccc1)NC(=O)[C@@H](NC(=O)[C@H](C)NC(=O)[C@H](CO)NC(=O)[C@H](Cc1ccccc1)NC(=O)[C@H](CCC(N)=O)NC(=O)[C@H](CCCCN)NC(=O)[C@H](CC(C)C)NC(=O)[C@H](CC(C)C)NC(=O)[C@H](CCCCN)NC(=O)[C@H](CC(C)C)NC(=O)[C@H](CC(C)C)NC(=O)[C@H](CCC(N)=O)NC(=O)[C@H](CCCCN)NC(=O)[C@H](CC(C)C)NC(=O)[C@H](CC(C)C)NC(=O)[C@H](CCC(N)=O)NC(=O)[C@@H](N)CC(C)C)[C@@H](C)O)[C@@H](C)CC)C(=O)N[C@@H](Cc1cnc[nH]1)C(=O)N[C@@H](CCCN=C(N)N)C(=O)N[C@@H](Cc1ccccc1)C(N)=O` [LQLLKQLLKLLKQFSATFIKHFIHRF], the MIC in assay [15] was 4.98 µM (≈ 16 µg/mL); in assay [16], 9.96 µM (≈ 32 µg/mL); in assay [17], 9.96 µM (≈ 32 µg/mL); with Staphylococcus aureus, 9.96 µM (≈ 32 µg/mL); in assay [18], 4.98 µM (≈ 16 µg/mL); in assay [19], 2.49 µM (≈ 8 µg/mL).
For the compound `CC(C)C[C@H](NC(=O)[C@H](CC(C)C)NC(=O)[C@H](CCCCN)NC(=O)[C@H](CCCCN)NC(=O)[C@H](CC(C)C)NC(=O)[C@H](C)NC(=O)[C@H](CCCCN)NC(=O)[C@H](Cc1ccccc1)NC(=O)[C@H](CC(C)C)NC(=O)[C@H](C)NC(=O)[C@H](CCCCN)NC(=O)[C@H](CC(C)C)NC(=O)[C@@H](N)Cc1ccccc1)C(=O)O` [FLKALFKALKKLL], the MIC is 6.52 µM (≈ 10 µg/mL) in [21], 7.83 µM (≈ 12 µg/mL) in assay [22], 1.96 µM (≈ 3 µg/mL) in assay [20] and 5.87 µM (≈ 9 µg/mL) in [23].
